The nature of data set [1]: in vitro. As to conditions: CD-1, mouse, liver microsomes. (In general: Liver microsomes are vesicles of endoplasmic reticulum, rich in cytochrome P450 enzymes.)
Description: Half life in CD-1 mouse liver microsomes at 1 uM by LC-MS/MS analysis
A short description of data set [2]: Solubility of the compound in PBS buffer at pH 7.4 after 24 hrs by LC-MS analysis. Type of data set: physicochemical.

Converted amounts (≈) assume the structure as drawn.

In the case of `O=C(CCC(F)(F)F)N1CCC(c2nc(-c3cccs3)no2)CC1`, in data set [1], the half-life (usually the time in which the quantity being followed falls by half) at 1 µM was 5 min.

Take `O=C(CCC(F)(F)F)N1CCC(c2nc(-c3nccs3)no2)CC1`: the concentration in solution in data set [2] (solubility at 24 h) came to 300 µg/mL (≈ 832 µM). Also, the half-life at 1 µM in data set [1] came out at 34 min.

Regarding `COc1ccc2nc(-c3noc(C4CCN(C(=O)CCC(F)(F)F)CC4)n3)sc2c1`, in data set [2], the solubility – broadly, the dissolved amount per volume that the medium holds – at 24 h came out at 6 µg/mL (≈ 13.6 µM). The compound further showed a half-life at 1 µM in data set [1] of 6 min.

`O=C(CCC(F)(F)F)N1CCC(c2nc(-c3ccccc3)no2)CC1` had a solubility at 24 h in data set [2] of 40 µg/mL (≈ 113 µM).

As for `O=C(CCCC(F)(F)F)N1CCC(c2nc(-c3nccs3)no2)CC1`, the half-life at 1 µM in data set [1] amounted to 81 min.

Source of the values: ChEMBL document CHEMBL1944547, “Ethionamide boosters. 2. Combining bioisosteric replacement and structure-based drug design to solve pharmacokinetic issues in a series of potent 1,2,4-oxadiazole EthR inhibitors” (J Med Chem, 2012).
